The record followed here is US9326513B2, “Fungicidal compositions” (Syngenta Participations AG, priority 2011, dated 2016).

Experiment [1] concerns Monographella nivalis (syn. Microdochium nivale, Fusarium nivale). Nature of the experiment: Monographella nivalis (snow mould, foot rot of cereals), PDB microtiter plate, visual after 72 hrs. It counts as cell-based.
The subject of the next experiment is Botrytis cinerea. Description: Botrytis cinerea (gray mould), PDB microtiter plate, visual after 72 hrs. The note with it: for inhibition at 2 ppm: rate 2 ppm. In kind it is cell-based.
For experiment [2], the system named is Blumeria graminis f. sp. tritici (Erysiphe graminis f. sp. tritici). Description: Blumeria graminis f. sp. tritici / wheat / leaf disc preventative (powdery mildew on wheat). The settings on record: foliar, compared to untreated control leaf disks, read-out: disease control. In kind it is in vivo. The procedure, abridged: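 Wheat leaf segments (cv. Kanzler) on agar were sprayed with formulated compound in water, inoculated with powdery mildew 1 day later, and kept at 20° C, 60% rh (24 h dark, then 12 h light/12 h dark). Percent disease control versus untreated scored 6-8 days after application; tested at 200 ppm.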

Experiment [3] has as its system Puccinia recondita f. sp. tritici. Description: Puccinia recondita f. sp. tritici / wheat / leaf disc preventative (brown rust). It counts as in vivo. The note with it: foliar, compared to untreated control leaf disks, read-out: disease control. The text has this: Puccinia recondita f. sp. tritici/Wheat/Leaf Disc Preventative (Brown Rust) Wheat leaf segments cv. Kanzler were placed on agar in multiwell plates (24-well format) and sprayed with the formulated test compound diluted in water. The leaf disks were inoculated with a spore suspension of the fungus 1 day after application.

For experiment [4] the test system is unchanged. Description: Puccinia recondita f. sp. tritici / wheat / leaf disc curative (brown rust). It counts as in vivo. The settings on record: foliar, compared to untreated control leaf disks, read-out: disease control. The protocol: Puccinia recondita f. sp. tritici/Wheat/Leaf Disc Curative (Brown Rust) Wheat leaf segments cv. Kanzler are placed on agar in multiwell plates (24-well format). The leaf segments are inoculated with a spore suspension of the fungus. Plates were stored in darkness at 19° C. and 75% rh. The formulated test compound diluted in water was applied 1 day after inoculation.

Another experiment concerns Pyrenophora teres. Description: Pyrenophora teres / barley / leaf disc preventative (net blotch). In kind it is in vivo. The settings on record: foliar, compared to untreated control leaf disks, read-out: disease control. From the text: Pyrenophora teres/Barley/Leaf Disc Preventative (Net Blotch) Barley leaf segments cv. Hasso were placed on agar in a multiwell plate (24-well format) and sprayed with the formulated test compound diluted in water. The leaf segments were inoculated with a spore suspension of the fungus 2 days after application.

The mark [5] stands for this setting: Botrytis cinerea, alone, rate 0.025 ppm.
The mark [6] stands for this setting: Botrytis cinerea, alone, rate 0.05 ppm.
The mark [7] stands for this setting: Botrytis cinerea, alone, rate 0.1 ppm.
Where [8] appears, read: applied alone, rate 0.15625 ppm.

`COC(=O)N(OC)c1ccccc1COc1ccn(-c2ccc(Cl)cc2)n1` [Pyraclostrobin] showed an inhibition at 0.0015625 ppm in experiment [1] (Monographella nivalis, applied alone, rate 0.0015625 ppm) of 0%. In addition, in experiment [1] (Monographella nivalis, applied alone, rate 0.003125 ppm), the inhibition at 0.003125 ppm is 0%. The compound further came in with an inhibition at 0.00625 ppm in experiment [1] (Monographella nivalis, single compound, rate 0.00625 ppm) of 0%. Also, the inhibition at 0.0125 ppm in experiment [1] (Monographella nivalis, single compound, rate 0.0125 ppm) came out at 50%. Further, the inhibition at 0.025 ppm in the experiment on Botrytis cinerea (setting [5]) was 0%. The inhibition at 0.05 ppm in the experiment on Botrytis cinerea (setting [6]) was determined as 0%. The same compound returned an inhibition at 0.1 ppm in the experiment with Botrytis cinerea (setting [7]) of 0%. The same compound displayed an inhibition at 0.2 ppm with Botrytis cinerea (Botrytis cinerea, alone, rate 0.2 ppm) of 20%. This compound came in with an inhibition at 0.25 ppm in the experiment on Botrytis cinerea (Botrytis cinerea, alone, rate 0.25 ppm) of 50%. Further, in the experiment with Botrytis cinerea (Botrytis cinerea, alone), the inhibition at 2 ppm is 70%.

Regarding `COCCOCc1nc(C(F)(F)F)ccc1C(=O)C1=C(O)C2CCC(C2)C1=O` (centres unmarked) [Bicyclopyrone], the “Activity (%)” value in experiment [1] (applied alone, rate 0.078125 ppm) turned out to be 0%; in experiment [1] (setting [8]), 0%; in experiment [1] (applied alone, rate 0.3125 ppm), 0%; in the experiment with Botrytis cinerea (alone, rate 1.25 ppm), 0%; in the experiment on Botrytis cinerea (alone, rate 2.5 ppm) it was 0%; with Botrytis cinerea (alone, rate 5 ppm), 0%.

As to `N#Cc1c(Cl)c(Cl)c(Cl)c(C#N)c1Cl` [Chlorotalonil], the “Activity (%)” value in the experiment on Botrytis cinerea (alone, rate 0.0625 ppm) turned out to be 0%; with Botrytis cinerea (alone, rate 0.125 ppm) it was 0%; with Botrytis cinerea (alone, rate 0.25 ppm), 20%.

For the compound `[Cu+2].[OH-].[OH-]` [Copper hydroxide], the “Activity (%)” value is recorded as 0% in experiment [1] (setting [8]); 0% in experiment [1] (applied alone, rate 0.3125 ppm); 0% in experiment [1] (applied alone, rate 0.625 ppm); 0% in experiment [1] (applied alone, rate 1.25 ppm); 0% in experiment [1] (applied alone, rate 2.5 ppm); 0% in experiment [1] (applied alone, rate 5 ppm). In addition, the “Activity (%)” value in the experiment with Botrytis cinerea (alone, rate 1.25 ppm) is 0%; in the experiment with Botrytis cinerea (alone, rate 2.5 ppm), 0%; with Botrytis cinerea (alone, rate 5 ppm) it was 0%.

Turning to `CC12CC1(C)C(=O)N(c1cc(Cl)cc(Cl)c1)C2=O` (centres unmarked) [Procymidone], the inhibition at 1.25 ppm in the experiment on Botrytis cinerea (Botrytis cinerea, alone, rate 1.25 ppm) was determined as 0%; in the experiment on Botrytis cinerea (Botrytis cinerea, single compound, rate 1.25 ppm), 0%. In the experiment with Botrytis cinerea (Botrytis cinerea, alone, rate 2.5 ppm, read-out: Activity (%)), the inhibition at 2.5 ppm worked out at 50%. In the experiment with Botrytis cinerea (Botrytis cinerea, single compound, rate 0.3125 ppm), this compound yielded an inhibition at 0.3125 ppm of 0%. The inhibition at 0.625 ppm in the experiment on Botrytis cinerea (Botrytis cinerea, single compound, rate 0.625 ppm) came out at 0%.

Abamectin: the “Activity (%)” value in experiment [1] (applied alone, 5 ppm) is recorded as 0%; in experiment [1] (applied alone, 10 ppm), 0%; in experiment [1] (applied alone, 20 ppm), 50%; in experiment [1] (setting [8]) it was 0%; in experiment [1] (applied alone, rate 0.3125 ppm), 0%; in experiment [1] (applied alone, rate 0.625 ppm), 0%. Also, the “Activity (%)” value in experiment [1] (applied alone, rate 1.25 ppm) came to 0%; in experiment [1] (applied alone, rate 2.5 ppm), 0%; with Botrytis cinerea (alone, rate 1.25 ppm), 0%; in the experiment with Botrytis cinerea (alone, rate 2.5 ppm) it was 0%; in the experiment with Botrytis cinerea (alone, rate 5 ppm), 0%; with Botrytis cinerea (alone, rate 10 ppm), 0%. Further, the “Activity (%)” value in the experiment on Botrytis cinerea (alone, rate 20 ppm) was 0%.

As to `CO/C=C(/C(=O)OC)c1ccccc1Oc1cc(Oc2ccccc2C#N)ncn1` [Azoxystrobin], the “Activity (%)” value is 50% in experiment [1] (applied alone, 0.00625 ppm); 0% in experiment [1] (applied alone, rate 0.0015625 ppm); 20% in experiment [1] (applied alone, rate 0.003125 ppm); 70% in experiment [1] (applied alone, rate 0.00625 ppm); 0% in the experiment with Botrytis cinerea (alone, rate 0.025 ppm); 0% with Botrytis cinerea (alone, rate 0.05 ppm). In addition, the “Activity (%)” value is listed as 0% with Botrytis cinerea (alone, rate 0.1 ppm); 0% in the experiment with Botrytis cinerea (alone, rate 0.125 ppm); 20% in the experiment on Botrytis cinerea (alone, rate 0.2 ppm); 20% with Botrytis cinerea (alone, rate 0.25 ppm).

As to `O=C(O)COc1ccc(Cl)cc1Cl` [2,4-D], the “Activity (%)” value in experiment [1] (applied alone, 0.625 ppm) was 0%; in experiment [1] (applied alone, 1.25 ppm) it was 0%; in experiment [1] (applied alone, 2.5 ppm), 0%; in experiment [1] (applied alone, 5 ppm) it was 0%; in experiment [1] (applied alone, 10 ppm), 0%; in experiment [1] (applied alone, rate 0.3125 ppm), 0%. Besides, the “Activity (%)” value in experiment [1] (applied alone, rate 0.625 ppm) is reported as 0%; in experiment [1] (applied alone, rate 1.25 ppm), 0%; in experiment [1] (applied alone, rate 2.5 ppm), 0%; in the experiment with Botrytis cinerea (alone, rate 2.5 ppm), 0%; in the experiment with Botrytis cinerea (alone, rate 5 ppm), 0%; with Botrytis cinerea (alone, rate 10 ppm), 0%.

Compound `COC(=O)Nc1nc2ccccc2[nH]1` [Carbendazim] returned an inhibition at 0.015625 ppm in experiment [1] (Monographella nivalis, applied alone, rate 0.015625 ppm) of 0%. The inhibition at 0.03125 ppm in experiment [1] (Monographella nivalis, applied alone, rate 0.03125 ppm) was 0%. The same compound gave an inhibition at 0.0625 ppm in experiment [1] (Monographella nivalis, applied alone, rate 0.0625 ppm) of 0%.

In turn, `CON=C(C(=O)OC)c1ccccc1CON=C(C)c1cccc(C(F)(F)F)c1` [Trifloxystrobin] had an inhibition at 0.0125 ppm with Botrytis cinerea (Botrytis cinerea, alone, rate 0.0125 ppm) of 0%. Moreover, the inhibition at 0.025 ppm in the experiment with Botrytis cinerea (setting [5]) came out at 20%. The inhibition at 0.05 ppm in the experiment with Botrytis cinerea (setting [6]) was determined as 50%. In the experiment on Botrytis cinerea (setting [7]), this compound displayed an inhibition at 0.1 ppm of 50%. The inhibition at 0.5 ppm with Botrytis cinerea (Botrytis cinerea, alone, rate 0.5 ppm) was found to be 50%. In addition, in the experiment on Botrytis cinerea (Botrytis cinerea, alone, rate 1 ppm), the inhibition at 1 ppm turned out to be 50%. For the same compound, the inhibition at 2 ppm with Botrytis cinerea (Botrytis cinerea, alone) came to 50%.

For the compound `[Mn+2].[O-2]` [Manganese oxide], the “Activity (%)” value in experiment [1] (setting [8]) is reported as 0%; in experiment [1] (applied alone, rate 0.3125 ppm), 0%; in experiment [1] (applied alone, rate 0.625 ppm), 0%; in experiment [1] (applied alone, rate 1.25 ppm), 0%; in experiment [1] (applied alone, rate 2.5 ppm), 0%.

On to `CCN(C)/C=N/c1cc(Br)c(OCc2ccc(Cc3ccccc3)cc2)nc1C` [Q.121], for which the pest or weed control at 200 ppm (in experiment [2]; in experiment [3]; in experiment [4]; with Pyrenophora teres) was at least 50% throughout.

For `CCN(C)/C=N/c1cc(Br)c(OCCCC(C)=C(C)C)nc1C` [Q.103], the pest or weed control at 200 ppm (in experiment [2]; in experiment [3]; in experiment [4]; in the experiment with Pyrenophora teres) was at least 50% each time.

Consider `C=CC(C)Oc1nc(C)c(/N=C/N(C)CC)cc1Br` (centres unmarked) [Q.394], for which the pest or weed control at 200 ppm (in experiment [2]; in experiment [3]; in experiment [4]; in the experiment on Pyrenophora teres) was at least 50% throughout.

In the case of `CCN(C)/C=N/c1cc(Br)c(OCCCCc2ccc(OC)cc2)nc1C` [Q.046], the pest or weed control at 200 ppm (in experiment [2]; in experiment [3]; in experiment [4]; in the experiment with Pyrenophora teres) was at least 50% each time.

Consider `CCN(C)/C=N/c1cc(Br)c(OCCc2ccccc2C)nc1C` [Q.349], for which the pest or weed control at 200 ppm (in experiment [2]; in experiment [3]; in experiment [4]; in the experiment with Pyrenophora teres) was at least 50% throughout.

`CCN(C)/C=N/c1cc(Br)c(OC2CC(C)C(C)C2)nc1C` (centres unmarked) [Q.382]: the pest or weed control at 200 ppm (in experiment [2]; in experiment [3]; in experiment [4]; in the experiment with Pyrenophora teres) was at least 50% each time.

Take `CCN(C)/C=N/c1cc(Br)c(OC(C)c2ccc(F)c(F)c2)nc1C` (centres unmarked) [Q.204]: the pest or weed control at 200 ppm (in experiment [2]; in experiment [3]; in experiment [4]; in the experiment with Pyrenophora teres) was at least 50% in each case.

For the compound `CCN(C)/C=N/c1cc(Br)c(OC2Cc3cccc(C)c3C2)nc1C` (centres unmarked) [Q.200], the pest or weed control at 200 ppm (in experiment [2]; in experiment [3]; in experiment [4]; with Pyrenophora teres) was at least 50% in each case.

As for `CCN(C)/C=N/c1ccc(O[C@H]2CC[C@@H](C(C)C)CC2)nc1C` [Q.183], the pest or weed control at 200 ppm (in experiment [2]; in experiment [3]; in experiment [4]; with Pyrenophora teres) was at least 50% each time.

`N#Cc1c(Cl)c(Cl)c(Cl)c(C#N)c1Cl` [Chlorothalonil] showed an inhibition at 0.03125 ppm in experiment [1] (Monographella nivalis, applied alone, 0.03125 ppm) of 0%. Besides, in experiment [1] (Monographella nivalis, applied alone, 0.0625 ppm), the inhibition at 0.0625 ppm turned out to be 20%. Further, the inhibition at 0.125 ppm in experiment [1] (Monographella nivalis, applied alone, 0.125 ppm) amounted to 70%.

Regarding `CCN(C)/C=N/c1cc(Br)c(OCc2ccccc2Br)nc1C` [Q.302], the pest or weed control at 200 ppm (in experiment [2]; in experiment [3]; in experiment [4]; in the experiment on Pyrenophora teres) was at least 50% in each case.

Turning to `CCN(C)/C=N/c1cc(Br)c(OC(C)c2cccc(C(C)F)c2)nc1C` (centres unmarked) [Q.292], the pest or weed control at 200 ppm (in experiment [2]; in experiment [3]; in experiment [4]; with Pyrenophora teres) was at least 50% throughout.

Regarding `CCN(C)/C=N/c1cc(Br)c(OC(C)Cc2cc(Cl)cc(Cl)c2)nc1C` (centres unmarked) [Q.221], the pest or weed control at 200 ppm (in experiment [2]; in experiment [3]; in experiment [4]; in the experiment with Pyrenophora teres) was at least 50% in each case.
